According to patent US20240246941A1, “SUBSTITUTED 4-(3-AMINOPROP-1-YL)AMINOQUINOLINE ANALOGS AS MODULATORS OF MELANOMA-ASSOCIATED ANTIGEN 11 UBIQUITIN LIGASE” (ST. JUDE CHILDREN'S RESEARCH HOSPITAL, INC., priority 2020, published 2024):

Biological target: interaction between GST-MAGEA11 MHD and FAM-PCF11_4 peptide (MAGE-A11:PCF11) (Homo sapiens (Human), UniProt P43364)
Assay: TR-FRET dose response competition assay for disruption of MAGE-A11:PCF11 binding
Settings: Dose response TR-FRET screening of nine scaffold groups against MAGE-A11:PCF11; read-out: consensus IC50
Method in brief: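 Competition TR-FRET at room temperature in 50 mM Tris pH 7.5, 20 mM MgCl2, 0.1 mg/ml BSA, 1 mM DTT: final 5 nM GST-MAGEA11 MHD, 5 nM Tb-anti-GST, 200 nM FAM-PCF11_4, 90 min. Ratio 520/490 nm converted to % inhibition; IC50 from sigmoidal fit.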

Chain of interaction between GST-MAGEA11 MHD and FAM-PCF11_4 peptide (MAGE-A11:PCF11) (P43364 218-429): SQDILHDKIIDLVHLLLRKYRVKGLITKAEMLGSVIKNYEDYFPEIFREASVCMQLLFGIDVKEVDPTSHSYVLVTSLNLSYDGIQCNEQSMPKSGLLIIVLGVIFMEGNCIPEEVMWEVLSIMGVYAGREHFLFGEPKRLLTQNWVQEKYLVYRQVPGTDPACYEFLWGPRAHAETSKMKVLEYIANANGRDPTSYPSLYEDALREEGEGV

CCCCn1c(=O)[nH]c(=O)c2c1nc(-c1cccc(F)c1)n2C [SJ000415940-1] gave an IC50 of 69.9 µM.
For CCCn1c(=O)[nH]c(=O)c2c1nc(-c1ccc(SC)cc1)n2CCOC [SJ000416762-1], the IC50 was 69.9 µM.
With COC(=O)Cn1cnc2cc(-c3ccc(Cl)cc3)sc2c1=O [SJ000418500-1] the IC50 was 69.9 µM.
COCCCn1c(-c2ccc(C#N)cc2)nc2c1c(=O)[nH]c(=O)n2Cc1ccccc1 [SJ000420075-1] showed an IC50 of 69.9 µM.
With C=CCOc1ccc(-c2nc3c(c(=O)[nH]c(=O)n3Cc3ccccc3)n2C)cc1Br [SJ000420085-1] the IC50 was 69.9 µM.
In the case of CCCn1c(-c2ccc(C(=O)O)cc2)nc2c1c(=O)[nH]c(=O)n2Cc1ccccc1 [SJ000420129-1], the IC50 is reported as 69.9 µM.
CCCn1c(-c2ccc(C(=O)OC)cc2)nc2c1c(=O)[nH]c(=O)n2Cc1ccccc1 [SJ000420179-1] showed an IC50 of 69.9 µM.
With CCc1ccc(-c2nc3c(c(=O)[nH]c(=O)n3CC(C)C)n2CCOC)cc1 [SJ000420343-1] the IC50 was 69.9 µM.
In the case of CCCCn1c(=O)[nH]c(=O)c2c1nc(-c1ccc(C#N)cc1)n2C [SJ000421295-1], the IC50 is reported as 69.9 µM.
Work on COCCn1c(-c2ccc(C)cc2)nc2c1c(=O)[nH]c(=O)n2CC(C)C [SJ000421396-1] yielded an IC50 of 69.9 µM.
With CCCCn1c(=O)[nH]c(=O)c2c1nc(-c1ccc(F)cc1)n2CCOC [SJ000421862-1] the IC50 was 69.9 µM.
For COCCn1c(-c2ccc(F)cc2)nc2c1c(=O)[nH]c(=O)n2CC(C)C [SJ000422648-1], the IC50 was 69.9 µM.
CCCn1c(=O)[nH]c(=O)c2c1nc(-c1ccc(OC)cc1)n2CCOC [SJ000423271-1] gave an IC50 of 69.9 µM.
CCCn1c(=O)[nH]c(=O)c2c1nc(-c1cccc(C)c1)n2CCOC [SJ000423281-1] was tested, and the IC50 was 69.9 µM.
With CCCn1c(=O)[nH]c(=O)c2c1nc(-c1ccc(Cl)cc1)n2CCOC [SJ000424475-1] the IC50 was 69.9 µM.
For CCCCn1c(=O)[nH]c(=O)c2c1nc(-c1ccc(C)cc1)n2C [SJ000425093-1], the IC50 was 69.9 µM.
Work on CCCn1c(=O)[nH]c(=O)c2c1nc(-c1ccc(OC)c(C)c1)n2CCOC [SJ000425187-1] yielded an IC50 of 69.9 µM.
COCCn1c(-c2ccc(OC)cc2)nc2c1c(=O)[nH]c(=O)n2CC(C)C [SJ000425224-1] gave an IC50 of 69.9 µM.
With CCCCn1c(=O)[nH]c(=O)c2c1nc(-c1ccc(OC)c(C)c1)n2C [SJ000425256-1] the IC50 was 69.9 µM.
CCCCn1c(=O)[nH]c(=O)c2c1nc(-c1ccc(OC)cc1)n2C [SJ000425260-1] showed an IC50 of 69.9 µM.
Compound CC(C)NC(=O)NC(=O)Cn1cnc2cc(-c3ccccc3)sc2c1=O [SJ000425388-1] has an IC50 of 69.9 µM.
In the case of CN(C)C(=O)Cn1cnc2cc(-c3ccccc3)sc2c1=O [SJ000425603-1], the IC50 is reported as 69.9 µM.
Work on CCC(C)(C)NC(=O)Cn1cnc2cc(-c3ccccc3)sc2c1=O [SJ000425613-1] yielded an IC50 of 69.9 µM.
In the case of CCN(CC)C(=O)Cn1cnc2cc(-c3ccccc3)sc2c1=O [SJ000425666-1], the IC50 is reported as 69.9 µM.
For COCCn1c(-c2cccc(C)c2)nc2c1c(=O)[nH]c(=O)n2CC(C)C [SJ000426389-1], the IC50 was 69.9 µM.
For C=CCNC(=O)NC(=O)Cn1cnc2cc(-c3ccccc3)sc2c1=O [SJ000426777-1], the IC50 was 69.9 µM.
CCCn1c(=O)[nH]c(=O)c2c1nc(-c1cccc(OC)c1)n2CCOC [SJ000427207-1] was tested, and the IC50 was 69.9 µM.
CCCCn1c(=O)[nH]c(=O)c2c1nc(-c1ccc(OCC)c(OC)c1)n2CCOC [SJ000427387-1] showed an IC50 of 69.9 µM.
COCC(C)NC(=O)Cn1cnc2cc(-c3ccc(Br)cc3)sc2c1=O (centres unmarked) [SJ000427828-1] gave an IC50 of 69.9 µM.
CC(C)(C)NC(=O)NC(=O)Cn1cnc2cc(-c3ccccc3)sc2c1=O [SJ000427956-1] showed an IC50 of 69.9 µM.
With C=C(C)CN(CC)C(=O)Cn1cnc2cc(-c3ccc(OC)cc3)sc2c1=O [SJ000429044-1] the IC50 was 69.9 µM.
With CCCCn1c(=O)[nH]c(=O)c2c1nc(-c1ccc(O)c(OC)c1)n2CCC [SJ000429070-1] the IC50 was 69.9 µM.
With CCn1c(-c2ccc(O)c(OC)c2)nc2c1c(=O)[nH]c(=O)n2Cc1ccccc1 [SJ000430392-1] the IC50 was 69.9 µM.
Compound COc1cc(-c2nc3c(c(=O)[nH]c(=O)n3Cc3ccccc3)n2C)ccc1O [SJ000430813-1] has an IC50 of 69.9 µM.
CCCCn1c(=O)[nH]c(=O)c2c1nc(-c1ccc(OCC(=O)O)cc1)n2CCC(C)C [SJ000431347-1] was tested, and the IC50 was 69.9 µM.
With CCCn1c(=O)[nH]c(=O)c2c1nc(-c1cccc(Br)c1)n2CCOC [SJ000431389-1] the IC50 was 69.9 µM.
C=CCN(CC=C)C(=O)Cn1cnc2cc(-c3ccc(OC)cc3)sc2c1=O [SJ000431447-1] was tested, and the IC50 was 69.9 µM.
CCCn1c(-c2cc(Br)ccc2F)nc2c1c(=O)[nH]c(=O)n2Cc1ccccc1 [SJ000437843-1] was tested, and the IC50 was 69.9 µM.
Cn1c(-c2ccc(OCC(=O)O)cc2)nc2c1c(=O)[nH]c(=O)n2Cc1ccccc1 [SJ000441071-1] gave an IC50 of 69.9 µM.
COc1ccc(CNC(=O)Cn2cnc3cc(-c4ccc(OC)cc4)sc3c2=O)cc1 [SJ000441316-1] was tested, and the IC50 was 69.9 µM.
Work on COc1ccc(-c2cc3ncn(CC(=O)NCc4ccc(F)cc4)c(=O)c3s2)cc1 [SJ000443969-1] yielded an IC50 of 69.9 µM.
Work on O=C(Cn1cnc2cc(-c3ccc(Cl)cc3)sc2c1=O)NCc1ccc(F)cc1 [SJ000444020-1] yielded an IC50 of 69.9 µM.
Compound COc1ccccc1CNC(=O)Cn1cnc2cc(-c3ccc(Cl)cc3)sc2c1=O [SJ000444040-1] has an IC50 of 69.9 µM.
Cc1ccc(CNC(=O)Cn2cnc3cc(-c4ccc(Cl)cc4)sc3c2=O)cc1 [SJ000445272-1] gave an IC50 of 69.9 µM.
COc1ccc(-c2cc3ncn(CC(=O)NCc4ccc(C)cc4)c(=O)c3s2)cc1 [SJ000445282-1] gave an IC50 of 69.9 µM.
CC(=O)Cn1cnc2cc(-c3ccccc3)sc2c1=O [SJ000448314-1] gave an IC50 of 69.9 µM.
Work on COc1ccc(-c2cc3ncn(CC(=O)NCc4ccccc4F)c(=O)c3s2)cc1 [SJ000449696-1] yielded an IC50 of 69.9 µM.
In the case of COc1ccc(-c2cc3ncn(CC(=O)NCc4ccccc4Cl)c(=O)c3s2)cc1 [SJ000449845-1], the IC50 is reported as 69.9 µM.
With COC(=O)CSc1nc2cc(-c3ccccc3)sc2c(=O)n1CCN1CCOCC1 [SJ000451551-1] the IC50 was 69.9 µM.
In the case of CC(C)(C)C(=O)CSc1nc2cc(-c3ccccc3)sc2c(=O)n1CCN1CCOCC1 [SJ000451590-1], the IC50 is reported as 69.9 µM.
CCCCCn1c(-c2cccc(OC)c2)nc2c1c(=O)[nH]c(=O)n2CCCC [SJ000451928-1] showed an IC50 of 69.9 µM.
With COc1ccccc1CNC(=O)Cn1cnc2cc(-c3ccccc3)sc2c1=O [SJ000452125-1] the IC50 was 69.9 µM.
Work on CCCn1cnc2cc(-c3ccc(Cl)cc3)sc2c1=O [SJ000452142-1] yielded an IC50 of 69.9 µM.
For CCCn1c(-c2ccc(OC)cc2)nc2c1c(=O)[nH]c(=O)n2Cc1ccccc1 [SJ000452204-1], the IC50 was 69.9 µM.
For O=c1c2sc(-c3ccccc3)cc2nc(SCCO)n1CCN1CCOCC1 [SJ000452798-1], the IC50 was 69.9 µM.
Cc1ccccc1CNC(=O)Cn1cnc2cc(-c3ccccc3)sc2c1=O [SJ000453315-1] gave an IC50 of 69.9 µM.
CCCSc1nc2cc(-c3ccccc3)sc2c(=O)n1CCN1CCOCC1 [SJ000453419-1] gave an IC50 of 69.9 µM.
C=CCSc1nc2cc(-c3ccccc3)sc2c(=O)n1CCN1CCOCC1 [SJ000453564-1] gave an IC50 of 69.9 µM.
COc1ccc(-c2cc3ncn(CC(=O)NCc4ccccc4C)c(=O)c3s2)cc1 [SJ000455215-1] showed an IC50 of 69.9 µM.
Compound O=C(Cn1cnc2cc(-c3ccc(Cl)cc3)sc2c1=O)NCc1ccccc1F [SJ000455225-1] has an IC50 of 69.9 µM.
O=C(Cn1cnc2cc(-c3ccccc3)sc2c1=O)NCc1ccccc1Cl [SJ000455850-1] was tested, and the IC50 was 69.9 µM.
Compound C=C(C)CSc1nc2cc(-c3ccccc3)sc2c(=O)n1CCN1CCOCC1 [SJ000456069-1] has an IC50 of 0.861 µM.
